Tested on: subjects with moderately to severely active RA who have an inadequate response to methotrexate (MTX)
Assay: Study 1 (add-on to MTX) - Alanine Aminotransferase (ALT) levels
Assay type: in vivo, human
Protocol: Double-blind, placebo-controlled add on study in subjects with moderately to severely active RA who have an inadequate response to methotrexate (MTX) (oral or parenteral).
595 subjects randomized to one of 6 dose regimens of Compound 1 (dosed as [Compound 1:HCl:3H2O]) (3 dose levels administered either once or twice daily) or placebo on top of each subject's stable dose of MTX.
Compound 1 (dosed as [Compound 1:HCl:3H2O]) is dosed for twelve weeks once daily (q.d.) (50 mg, 100 mg or 200 mg) or twice daily (b.i.d.) (25 mg, 50 mg or 100 mg); or placebo.
At Week 12, the subjects on placebo who have not achieved 20% improvement in swollen joint count (SJC66) and tender joint count (TJC68) are re-randomized automatically to receive Compound 1 (dosed as a [Compound 1:HCl:3H2O]) either at 100 mg q.d. or 50 mg b.i.d. doses in a blinded fashion; subjects on 50 mg q.d. who have not achieved 20% improvement in SJC66 and TJC68 will be assigned to 100 mg q.d. and subjects on 25 mg b.i.d. that have not achieved a 20% improvement in SJC66 and TJC68 will be assigned to 50 mg b.i.d. Subjects who switch treatment at week 12 are handled as if they discontinued at week 12 for the purpose of statistical analysis, whereas subjects in the other groups will maintain their randomized treatment until Week 24.
ALT levels determination is available at Quest Diagnostics, Clinical Trials, Quest House, 125-135 Staines Road, Hounslow, Middlesex, TW3 3JB, United Kingdom under Catalogue n#84460.
ALT catalyzes the exchange of the amino group of alanine with the oxogroup of 2-ketoglutarate to form pyruvate and glutamate. In the presence of lactic dehydrogenase, pyruvate reacts with NADH to form NAD+, measured spectrophotometrically. Guidelines for the ALT value have been issued by the association for Clinical Biochemistry and Laboratory Medicine, 130-132 Tooley Street LONDON SE1 2TU, united Kingdom, wherein the ALT value should be below 34 U/l in Female and below 52 U/L in male.

[1] = 12 weeks results, 50 mg q.d., week 1
[2] = 12 weeks results, 50 mg q.d., week 2
[3] = 12 weeks results, 50 mg q.d., week 4
[4] = 12 weeks results, 50 mg q.d., week 8
[5] = 12 weeks results, 50 mg q.d., week 12
[6] = 12 weeks results, 100 mg q.d., week 1
[7] = 12 weeks results, 100 mg q.d., week 2
[8] = 12 weeks results, 100 mg q.d., week 4
[9] = 12 weeks results, 100 mg q.d., week 8
[10] = 12 weeks results, 100 mg q.d., week 12
[11] = 12 weeks results, 200 mg q.d., week 1
[12] = 12 weeks results, 200 mg q.d., week 2
[13] = 12 weeks results, 200 mg q.d., week 4
[14] = 12 weeks results, 200 mg q.d., week 8
[15] = 12 weeks results, 200 mg q.d., week 12
[16] = 12 weeks results, 2 × 25 mg b.i.d., week 1
[17] = 12 weeks results, 2 × 25 mg b.i.d., week 2
[18] = 12 weeks results, 2 × 25 mg b.i.d., week 4
[19] = 12 weeks results, 2 × 25 mg b.i.d., week 8
[20] = 12 weeks results, 2 × 25 mg b.i.d., week 12
[21] = 12 weeks results, 2 × 50 mg b.i.d., week 1
[22] = 12 weeks results, 2 × 50 mg b.i.d., week 2
[23] = 12 weeks results, 2 × 50 mg b.i.d., week 4
[24] = 12 weeks results, 2 × 50 mg b.i.d., week 8
[25] = 12 weeks results, 2 × 50 mg b.i.d., week 12
[26] = 12 weeks results, 2 × 100 mg b.i.d., week 1
[27] = 12 weeks results, 2 × 100 mg b.i.d., week 2
[28] = 12 weeks results, 2 × 100 mg b.i.d., week 4
[29] = 12 weeks results, 2 × 100 mg b.i.d., week 8
[30] = 12 weeks results, 2 × 100 mg b.i.d., week 12
[31] = 24 weeks results, continued 25 mg b.i.d., week 1
[32] = 24 weeks results, continued 25 mg b.i.d., week 2
[33] = 24 weeks results, continued 25 mg b.i.d., week 4
[34] = 24 weeks results, continued 25 mg b.i.d., week 8
[35] = 24 weeks results, continued 25 mg b.i.d., week 12
[36] = 24 weeks results, continued 25 mg b.i.d., week 16
[37] = 24 weeks results, continued 25 mg b.i.d., week 20
[38] = 24 weeks results, continued 25 mg b.i.d., week 24
[39] = 24 weeks results, continued 50 mg b.i.d., week 1
[40] = 24 weeks results, continued 50 mg b.i.d., week 2
[41] = 24 weeks results, continued 50 mg b.i.d., week 4
[42] = 24 weeks results, continued 50 mg b.i.d., week 8
[43] = 24 weeks results, continued 50 mg b.i.d., week 12
[44] = 24 weeks results, continued 50 mg b.i.d., week 16
[45] = 24 weeks results, continued 50 mg b.i.d., week 20
[46] = 24 weeks results, continued 50 mg b.i.d., week 24
[47] = 24 weeks results, continued 50 mg q.d., week 1
[48] = 24 weeks results, continued 50 mg q.d., week 2
[49] = 24 weeks results, continued 50 mg q.d., week 4
[50] = 24 weeks results, continued 50 mg q.d., week 8

## O=C(Nc1nc2cccc(-c3ccc(CN4CCS(=O)(=O)CC4)cc3)n2n1)C1CC1 [Compound 1, cyclopropanecarboxylic acid {5-[4-(1,1-dioxo-thiomorpholin-4-ylmethyl)-phenyl]-[1,2,4]triazolo[1,5-a]pyridin-2-yl}-amide]
[1]
  Study 1 - ALT Mean CFB: 1 IU/L
  Study 1 - ALT Mean percentage CFB: 5%
[2]
  Study 1 - ALT Mean CFB: −1 IU/L
  Study 1 - ALT Mean percentage CFB: 0%
[3]
  Study 1 - ALT Mean CFB: −1 IU/L
  Study 1 - ALT Mean percentage CFB: 4%
[4]
  Study 1 - ALT Mean CFB: 0 IU/L
  Study 1 - ALT Mean percentage CFB: 9%
[5]
  Study 1 - ALT Mean CFB: 0 IU/L
  Study 1 - ALT Mean percentage CFB: 12%
[6]
  Study 1 - ALT Mean CFB: 3 IU/L
  Study 1 - ALT Mean percentage CFB: 14%
[7]
  Study 1 - ALT Mean CFB: 1 IU/L
  Study 1 - ALT Mean percentage CFB: 9%
[8]
  Study 1 - ALT Mean CFB: 1 IU/L
  Study 1 - ALT Mean percentage CFB: 9%
[9]
  Study 1 - ALT Mean CFB: 2 IU/L
  Study 1 - ALT Mean percentage CFB: 15%
[10]
  Study 1 - ALT Mean CFB: 2 IU/L
  Study 1 - ALT Mean percentage CFB: 16%
[11]
  Study 1 - ALT Mean CFB: 2 IU/L
  Study 1 - ALT Mean percentage CFB: 11%
[12]
  Study 1 - ALT Mean CFB: 1 IU/L
  Study 1 - ALT Mean percentage CFB: 16%
[13]
  Study 1 - ALT Mean CFB: 1 IU/L
  Study 1 - ALT Mean percentage CFB: 15%
[14]
  Study 1 - ALT Mean CFB: 4 IU/L
  Study 1 - ALT Mean percentage CFB: 31%
[15]
  Study 1 - ALT Mean CFB: 3 IU/L
  Study 1 - ALT Mean percentage CFB: 34%
[16]
  Study 1 - ALT Mean CFB: −1 IU/L
  Study 1 - ALT Mean percentage CFB: 4%
[17]
  Study 1 - ALT Mean CFB: −2 IU/L
  Study 1 - ALT Mean percentage CFB: 2%
[18]
  Study 1 - ALT Mean CFB: −1 IU/L
  Study 1 - ALT Mean percentage CFB: 9%
[19]
  Study 1 - ALT Mean CFB: 0 IU/L
  Study 1 - ALT Mean percentage CFB: 11%
[20]
  Study 1 - ALT Mean CFB: 1 IU/L
  Study 1 - ALT Mean percentage CFB: 21%
[21]
  Study 1 - ALT Mean CFB: 1 IU/L
  Study 1 - ALT Mean percentage CFB: 8%
[22]
  Study 1 - ALT Mean CFB: 1 IU/L
  Study 1 - ALT Mean percentage CFB: 13%
[23]
  Study 1 - ALT Mean CFB: 3 IU/L
  Study 1 - ALT Mean percentage CFB: 24%
[24]
  Study 1 - ALT Mean CFB: 2 IU/L
  Study 1 - ALT Mean percentage CFB: 20%
[25]
  Study 1 - ALT Mean CFB: 2 IU/L
  Study 1 - ALT Mean percentage CFB: 28%
[26]
  Study 1 - ALT Mean CFB: 1 IU/L
  Study 1 - ALT Mean percentage CFB: 9%
[27]
  Study 1 - ALT Mean CFB: 1 IU/L
  Study 1 - ALT Mean percentage CFB: 10%
[28]
  Study 1 - ALT Mean CFB: 1 IU/L
  Study 1 - ALT Mean percentage CFB: 20%
[29]
  Study 1 - ALT Mean CFB: 1 IU/L
  Study 1 - ALT Mean percentage CFB: 25%
[30]
  Study 1 - ALT Mean CFB: 2 IU/L
  Study 1 - ALT Mean percentage CFB: 26%
[31]
  Study 1 - ALT Mean CFB: 0.8 IU/L
  Study 1 - ALT Mean percentage CFB: 8.9%
[32]
  Study 1 - ALT Mean CFB: −0.4 IU/L
  Study 1 - ALT Mean percentage CFB: 5.4%
[33]
  Study 1 - ALT Mean CFB: 0.3 IU/L
  Study 1 - ALT Mean percentage CFB: 10.9%
[34]
  Study 1 - ALT Mean CFB: 1.8 IU/L
  Study 1 - ALT Mean percentage CFB: 18.4%
[35]
  Study 1 - ALT Mean CFB: 2.5 IU/L
  Study 1 - ALT Mean percentage CFB: 28.6%
[36]
  Study 1 - ALT Mean CFB: 1.2 IU/L
  Study 1 - ALT Mean percentage CFB: 21.4%
[37]
  Study 1 - ALT Mean CFB: 0.0 IU/L
  Study 1 - ALT Mean percentage CFB: 15.2%
[38]
  Study 1 - ALT Mean CFB: 1.4 IU/L
  Study 1 - ALT Mean percentage CFB: 25.1%
[39]
  Study 1 - ALT Mean CFB: 0.6 IU/L
  Study 1 - ALT Mean percentage CFB: 8.5%
[40]
  Study 1 - ALT Mean CFB: 1.2 IU/L
  Study 1 - ALT Mean percentage CFB: 13.0%
[41]
  Study 1 - ALT Mean CFB: 2.5 IU/L
  Study 1 - ALT Mean percentage CFB: 24.2%
[42]
  Study 1 - ALT Mean CFB: 2.2 IU/L
  Study 1 - ALT Mean percentage CFB: 20.3%
[43]
  Study 1 - ALT Mean CFB: 2.1 IU/L
  Study 1 - ALT Mean percentage CFB: 27.6%
[44]
  Study 1 - ALT Mean CFB: 1.6 IU/L
  Study 1 - ALT Mean percentage CFB: 20.1%
[45]
  Study 1 - ALT Mean CFB: 3.0 IU/L
  Study 1 - ALT Mean percentage CFB: 26.2%
[46]
  Study 1 - ALT Mean CFB: 1.8 IU/L
  Study 1 - ALT Mean percentage CFB: 18.7%
[47]
  Study 1 - ALT Mean CFB: 0.9 IU/L
  Study 1 - ALT Mean percentage CFB: 6.6%
[48]
  Study 1 - ALT Mean CFB: −0.7 IU/L
  Study 1 - ALT Mean percentage CFB: 1.4%
[49]
  Study 1 - ALT Mean CFB: −0.6 IU/L
  Study 1 - ALT Mean percentage CFB: 4.8%
[50]
  Study 1 - ALT Mean CFB: 0.4 IU/L
  Study 1 - ALT Mean percentage CFB: 10.6%
